Laboratory results published in patent US20260109763A1, “ANTI-PILRA ANTIBODIES, USES THEREOF, AND RELATED METHODS AND REAGENTS” (DENALI THERAPEUTICS INC., priority 2021, published 2026).

Tested on: PILRA G78 expressing HEK293 cells
Test: mTOR dependence of anti-PILRA antibody-induced pSTAT3 Y705
Format: cell-based, human
Conditions: 2 hours pre-incubation; AZD8055 3.125-50 nM, Torin 1 31.25-500 nM; then 100 nM anti-PILRA mAb 30 mins
Procedure: To assess if pSTAT3 Y705 induction is mTOR dependent, cells were dosed with mTOR inhibitors Torin 1 (31.25-500 nM) or AZD8055 (3.125-50 nM) for 2 hours before spiking in 100 nM anti-PILRA mAb or isotype control for 30 mins.

In the case of `COc1ccc(-c2ccc3c(N4CCOC[C@@H]4C)nc(N4CCOC[C@@H]4C)nc3n2)cc1CO` [AZD8055], the “blocking of anti-PILRA antibody-induced pSTAT3 Y705 by mTOR inhibitor” value is reported as “partially blocked”.

For `CCC(=O)N1CCN(c2ccc(-n3c(=O)ccc4cnc5ccc(-c6cnc7ccccc7c6)cc5c43)cc2C(F)(F)F)CC1` [Torin 1], the “blocking of anti-PILRA antibody-induced pSTAT3 Y705 by mTOR inhibitor” value was “partially blocked”.
